Source: patent US20230257413A1, “ARTIFICIAL NUCLEIC ACID, METHOD FOR PRODUCING SAME, AND USE THEREOF” (RIKEN GENESIS CO., LTD., priority 2020, published 2023)

Columns and labels:
[1] = system: single-stranded DNA (5′-d(agcaaaaaacgc)-3′; SEQ ID NO: 6) (a sense strand); test: Measurement of melting temperatures (Tm) of oligonucleotides, double strand forming capability with single-stranded DNA; assay type: binding; conditions: antisense 5′-d(gcgnnnnnngct)-3′ (SEQ ID NO: 4); 100 mM NaCl, 10 mM sodium phosphate buffer pH 7.2, 4 μM each strand
[2] = system: single-stranded RNA (5′-r(agcaaaaaacgc)-3′; SEQ ID NO: 7) (a sense strand); test: Measurement of melting temperatures (Tm) of oligonucleotides, double strand forming capability with single-stranded RNA; assay type: binding; conditions: antisense 5′-d(gcgnnnnnngct)-3′ (SEQ ID NO: 4); 100 mM NaCl, 10 mM sodium phosphate buffer pH 7.2, 4 μM each strand

(R)EDM-T: SEQ ID NO: 4, n = formula (6) unit: thymin-1-yl, n 1, R^3 3-(N,N-dimethylamino)propyl, R^4 (R)-ethyl, R^5 H (DNA AGCAAAAAACG; n (R)EDM-T modified units, chemistry not fully specified; the letters are possibly those of the target site)
Tm value (target: ssDNA) [1]: 77 °C | Tm value (target: ssRNA) [2]: 89 °C

DNA-T: 5′-d(gcgnnnnnngct)-3′ (SEQ ID NO: 4), n = formula (7) unit, Base thymin-1-yl, R^a H (natural DNA T) (DNA AGCAAAAAACGC; n natural T, chemistry not fully specified; the letters are possibly those of the target site)
Tm value (target: ssDNA) [1]: 52 °C | Tm value (target: ssRNA) [2]: 48 °C
